The target of one assay is Cannabinoid receptor 2 (Homo sapiens, UniProt P34972). Put plainly: Inverse agonist activity at human CB2 receptor expressed in HEK293 cells assessed as forskolin-stimulated cAMP accumulation measured after 30 mins by HTRF assay. In kind it is functional, cell-based.
In another assay the target is Cannabinoid receptor 1 (Homo sapiens, UniProt P21554). Put plainly: Inverse agonist activity at human CB1 receptor expressed in HEK293 cells assessed as forskolin-stimulated cAMP accumulation measured after 30 mins by HTRF assay. In kind it is functional, cell-based.
Sequence of Cannabinoid receptor 1 (P21554 whole entry): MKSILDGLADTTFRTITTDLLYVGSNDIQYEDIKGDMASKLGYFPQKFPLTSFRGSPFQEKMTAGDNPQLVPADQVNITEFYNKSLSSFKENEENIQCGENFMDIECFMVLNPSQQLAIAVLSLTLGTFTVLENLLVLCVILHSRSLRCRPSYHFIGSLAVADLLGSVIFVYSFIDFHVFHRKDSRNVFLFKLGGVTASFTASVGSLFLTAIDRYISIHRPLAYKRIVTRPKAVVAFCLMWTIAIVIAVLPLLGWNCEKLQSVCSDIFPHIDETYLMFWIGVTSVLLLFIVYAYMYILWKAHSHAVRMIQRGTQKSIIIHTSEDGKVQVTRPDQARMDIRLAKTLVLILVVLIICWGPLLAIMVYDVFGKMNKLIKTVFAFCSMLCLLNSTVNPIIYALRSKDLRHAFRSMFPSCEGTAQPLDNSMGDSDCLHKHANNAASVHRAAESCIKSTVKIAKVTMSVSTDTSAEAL

Sequence of Cannabinoid receptor 2 (P34972 whole entry): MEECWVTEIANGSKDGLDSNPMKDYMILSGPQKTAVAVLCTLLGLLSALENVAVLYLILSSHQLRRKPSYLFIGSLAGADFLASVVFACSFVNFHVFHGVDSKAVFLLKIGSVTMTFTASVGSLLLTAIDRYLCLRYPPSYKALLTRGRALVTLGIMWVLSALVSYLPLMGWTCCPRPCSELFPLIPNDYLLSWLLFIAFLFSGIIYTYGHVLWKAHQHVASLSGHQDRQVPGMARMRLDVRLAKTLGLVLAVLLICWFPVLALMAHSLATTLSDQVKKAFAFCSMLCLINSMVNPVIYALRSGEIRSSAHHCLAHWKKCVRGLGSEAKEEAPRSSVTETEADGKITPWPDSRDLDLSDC

With `O=S(=O)(N1CCC(Nc2cnnc3ccc(C(O)(c4ccc(Cl)cc4)c4ccc(Cl)cc4)cc23)CC1)C(F)(F)F`, the EC50 at Cannabinoid receptor 2 is greater than 10 µM.

`Clc1ccc(C(c2ccc(Cl)cc2)c2ccc3nncc(NC4CCC(Nc5ccccc5)CC4)c3c2)cc1` (centres undefined): the EC50 is greater than 10 µM on Cannabinoid receptor 2 and 0.099 µM on Cannabinoid receptor 1.

For the compound `O=C(O)c1ccccc1S(=O)(=O)N1CCC(Nc2cnnc3ccc(C(c4ccc(Cl)cc4)c4ccc(Cl)cc4)cc23)CC1`, at Cannabinoid receptor 2, the EC50 is greater than 10 µM.

Usually EC50 stands for the concentration that produces a half-maximal response.
